Laboratory results taken from article PMC6205638, “Exploring natural genetic variation in tomato sucrose synthases on the basis of increased kinetic properties” (PLoS ONE, 2018).

What was measured:
SuSy3-haplotype#9 = system: T1, SuSy3-haplotype#9; assay: sucrose cleavage; UDP-glucose quantified by UDP-glucose dehydrogenase / NADH; Michaelis-Menten fit; assay type: biochemical, Solanum arcanum; details: 4 mM UDP, 20 mM HEPES pH 7.5, 25 °C; IMAC-purified
T1 construct: natural wild-species haplotype, full length (805 aa), in pDR195, expressed in Saccharomyces cerevisiae 22574d, IEX- and IMAC-purified; equals S. lycopersicum SuSy3 haplotype#1 with S53A/S106I/E727D/K741E (natural differences)
Excerpt: sucrose cleavage; UDP-glucose quantified by UDP-glucose dehydrogenase / NADH; Michaelis-Menten fit on SuSy3-haplotype#9

SuSy3-haplotype#10 = system: T2, SuSy3-haplotype#10; assay: as above; assay type: biochemical, Solanum neorickii; details: 4 mM UDP, 20 mM HEPES pH 7.5, 25 °C; IEX-purified only (lower purity)
T2 construct: natural wild-species haplotype, full length (805 aa), in pDR195, expressed in Saccharomyces cerevisiae 22574d, IEX-purified only; equals S. lycopersicum SuSy3 haplotype#1 with S53A/S106I/Q349L/E727D/K741E (natural differences)
Excerpt: sucrose cleavage; UDP-glucose quantified by UDP-glucose dehydrogenase / NADH; Michaelis-Menten fit on SuSy3-haplotype#10

## OC[C@H]1O[C@@](CO)(O[C@H]2O[C@H](CO)[C@@H](O)[C@H](O)[C@H]2O)[C@@H](O)[C@@H]1O [sucrose]
SuSy3-haplotype#9
  Km: 33 ± 9 mM
SuSy3-haplotype#10
  Km: 58 ± 14 mM
